Measurements from patent publication US12285392B2, “Method for modulating metabolism” (Brightseed, Inc., priority 2018, dated 2025).

Assays:
diet-induced obese mice = assay: Efficacy and tolerability in diet-induced obese mice; type: in vivo
Method: Alkaline Phosphatase (ALP) Quantitation. Increased levels of ALP in blood are considered indicative of liver function abnormalities. Thus, ALP was assayed in accordance with known methods (Kiselyuk, et al. (2012) Chem. Biol. 19(7):806-818). Briefly, prior to sacrifice, blood was drawn and analyzed using a Vet Scan blood analyzer, measuring alkaline phosphatase (ALP, IU/L), alanine aminotransferase (ALT, IU/L), gamma glutamyl transferase (GGT, IU/L), bile acids (BA, μmol/L), total bilirubin (TBIL, mg/dL), albumin (ALB, g/dL), blood urea nitrogen (BUN, mg/dL), and cholesterol (CHOL, mg/dL).
Triglyceride (TG) Quantitation. TG quantity was assayed using a Triglyceride Colorimetric Assay Kit (Cayman Chemicals; Ann Arbor, MI) according to the manufacturer's instructions.
Lipid Droplet Size Analysis. All slides were scanned at a magnification of 20× using the Aperio Scanscope FL system (Aperio Technologies Inc.; Vista, CA). The appropriate dyes were assigned and illumination levels were calibrated using a preset procedure; the parameters were saved and applied to all slides. The acquired digital images represented whole tissue sections. Sections were evaluated for image quality. All acquired images were subsequently placed in dedicated project folders, and stored on a designated local server. Selected areas of the slides were selected using Aperio Imagescope (version 12 Aperio Technologies Inc.). For analysis, slides were viewed, whole tissue areas were selected and analyzed using the web-based Image Scope viewer. Slides were quantified using the ‘Color Deconvolution v9’ algorithm for oil redo staining (version 11 Aperio Technologies Inc.). The algorithm was optimized using a preset procedure to maximize the strong red color positive oil droplets signal to noise ratio and the subsequent macro was saved and applied to all slides.
HNF4α Immunostaining in Organ Samples. Samples were harvested from mice, fixed in 4% paraformaldehyde and embedded in paraffin or O.C.T. freezing media (Sakura Finetek; Torrance, CA) Slides of 5 μm thickness were washed four times with PBS and treated with 0.3% Triton™ in PBS for 10 minutes. Antigen retrieval was carried out with CitriSolv™ (Fisher Scientific; Waltham, MA) for 10 minutes in sub-boiling temperature. After washing with PBS for 10 minutes, slides were incubated in blocking solution with 5% normal donkey serum (Jackson Immuno Research; West Grove, PA) for 60 minutes at room temperature. Cells were fixed in 4% paraformaldehyde for 15 minutes on 4° C. and washed with PBS, treated with 0.3% Triton™ in PBS for 10 minutes and blocked as previously described for slide samples.
Primary Antibodies. HNF4α antibodies were used (#sc-6556, Santa Cruz Biotechnology; Santa Cruz, CA and #3113, Cell Signaling Technology; Danvers, MA). For fluorescent imaging, samples were incubated with ALEXA FLOUR® 488 green-fluorescent dye or Rhodamine labeled anti-mouse, rabbit or goat and nuclei were counterstained with DAPI (4′,6-diamidino-2-phenylindole) Controls using secondary antibodies alone were used to ensure specificity of immunostaining. Fluorescently labeled sections were analyzed with a conventional inverted microscope (Olympus, PlanFl 40×/0.60) or with a confocal microscope equipped with a krypton/argon laser.
The experiments were performed to establish feeding and treatment regimen, dosing and administration regimens, as well as to provide evidence of beneficial effects of N-trans-caffeoyltyramine on glucose and lipid homeostasis, hepatic steatosis, β-cell function and hepatocyte function. Twelve mice (10 weeks old) were fed a high-fat diet for four weeks to induce obesity. After four weeks, and while on the high-fat diet, six mice were administered 5% DMSO or 120 mg/kg N-trans-caffeoyltyramine twice a day intraperitoneally for 14 days. One hour after the last i.p. injection of DMSO or N-trans-caffeoyl tyramine, the animals were sacrificed and blood and organ (liver, kidney, gut and pancreas) samples were collected. […]

HNF4α = molecular target: T1, HNF4α (Homo sapiens, UniProt P41235); assay: Insulin promoter activity assay in T6PNE cells (HNF4α activity); type: cell-based
T1 construct: endogenous in cells; host or cells: T6PNE cells
T1 sequence (P41235 1-474): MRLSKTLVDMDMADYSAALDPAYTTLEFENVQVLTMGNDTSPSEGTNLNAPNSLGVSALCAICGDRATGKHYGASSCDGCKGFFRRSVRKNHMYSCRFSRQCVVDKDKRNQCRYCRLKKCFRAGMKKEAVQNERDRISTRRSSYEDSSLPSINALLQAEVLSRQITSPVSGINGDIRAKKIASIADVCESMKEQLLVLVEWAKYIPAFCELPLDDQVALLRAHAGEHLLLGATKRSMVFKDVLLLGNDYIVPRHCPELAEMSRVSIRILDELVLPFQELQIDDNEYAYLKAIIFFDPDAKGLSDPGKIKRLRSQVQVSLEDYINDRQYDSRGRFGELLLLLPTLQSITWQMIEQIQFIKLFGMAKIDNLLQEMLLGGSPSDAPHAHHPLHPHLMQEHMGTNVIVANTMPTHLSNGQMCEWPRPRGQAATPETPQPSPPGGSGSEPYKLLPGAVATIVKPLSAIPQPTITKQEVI
Method: Insulin Promoter Activity. T6PNE cells (Kiselyuk, et al. (2012) Chem Biol. 19(7):806-818; Kiselyuk, et al. (2010) J. Biomol. Screen 15(6):663-70) are seeded at 2000 cells per well in 384-well tissue culture plates in the presence of 1 μM tamoxifen and 0.03 mM palmitate. After a 24-hour incubation, a compound or extract of the invention is added to the cells. Forty-eight hours after compound or extract addition, cells are fixed in 4% paraformaldehyde and stained with DAPI. Blue (DAPI) and green (human insulin promoter driving GFP) channels are imaged.
Inhibition of HNF4α GFP Expression. Using the insulin promoter assay described herein, activity of HNF4α was assessed in the presence of BI-6015 (0, 2.5, 5 μM), a known antagonist of HNF4α (Kiselyuk, et al. (2012) Chem. Biol. 19(7):806-818), in combination with N-trans-caffeoyltyramine (0, 5, 10, 20 μM).
Given the role of HNF4α in maintaining a heal thy metabolism in humans, test compounds were screened for activity as HNF4α agonists (either direct or indirect effects). Using a known insulin promoter-reporter assay, Kiselyuk and colleagues (2010. J. Biomol. Screen 15(6):663-70), screened a library of compounds for activity to promote insulin activation. […] The OTC promoter is known to be responsive to HNF4α in transient transfection assays (Inoue, et al. (2002) J. Biol. Chem. 277:25257-65).

For `O=C(/C=C/c1ccc(O)c(O)c1)NCCc1ccc(O)cc1` [N-trans-caffeoyltyramine], which “Lipid accumulation in the liver” value (diet-induced obese mice; 120 mg/kg twice a day i.p. for 14 days) is on record?
Its value is “decreased”.

What about the “Weight loss, sickness or abnormal behaviors compared to control” value (diet-induced obese mice; 120 mg/kg twice a day i.p. for 14 days, high-fat diet mice) of the same compound?
Its value is “None of the treated mice exhibited weight loss, sickness, or abnormal behaviors”.

And the “Lipid droplet sizes in the liver” value (diet-induced obese mice; 120 mg/kg twice a day i.p. for 14 days, FIG. 8)?
Its value is “reduced”.

What about the “HNF4α expression in the liver” value (diet-induced obese mice; 120 mg/kg twice a day i.p. for 14 days, P=0.0042, FIG. 7) of the same compound?
The value was “significantly increased”.

And the “HNF4α expression in intestines” value (diet-induced obese mice; FIG. 12)?
The value was “increased”.

And the “Levels of alkaline phosphatase” value (diet-induced obese mice; blood, 120 mg/kg twice a day i.p. for 14 days, FIG. 9)?
The value was “significantly reduced”.

And the “HNF4α expression in the pancreas” value (diet-induced obese mice; compared to DMSO control mice, FIG. 11)?
Its value is “increased”.

What about the Levels of triglycerides (diet-induced obese mice; liver, 120 mg/kg twice a day i.p. for 14 days, FIG. 10) of the same compound?
Its Levels of triglycerides is “significantly reduced”.

And the “Potency in activating HNF4α relative to Alverine” value (HNF4α; FIG. 1, insulin promoter activity dose-response)?
Its value is “roughly an order-of-magnitude more potent than Alverine”.

And the “HNF4α modulation in screening” value (HNF4α; screening in the HNF4α assay)?
Its value is “able to act as HNF4α modulators”.
